How the values were obtained:
ThyX [1] = target: T1, ThyX (Thermotoga maritima, UniProt Q9WYT0); assay: anaerobic methylation assay with purified ThyX (MS, […]-NMR); stopped-flow of FADH−•dUMP complex; assay type: biochemical
T1 sequence (Q9WYT0 1-220): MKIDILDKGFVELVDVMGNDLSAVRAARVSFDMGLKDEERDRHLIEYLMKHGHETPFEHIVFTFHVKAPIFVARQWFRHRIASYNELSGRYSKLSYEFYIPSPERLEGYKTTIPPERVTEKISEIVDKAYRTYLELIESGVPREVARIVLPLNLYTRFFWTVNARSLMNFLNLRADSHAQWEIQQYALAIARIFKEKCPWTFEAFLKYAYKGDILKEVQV

ThyX [2] = target: T1, ThyX; assay: stopped-flow kinetics of reduced ThyX-dUMP (kon/koff); assay type: binding

Row | SMILES | anaerobic methylation assay with purified ThyX (MS, 13C-NMR); stopped-flow of FA (ThyX [1]) | Kd (ThyX [2])
1 | O=c1ccn([C@H]2C[C@H](O)[C@@H](COP(=O)(O)O)O2)c(=O)[nH]1 [dUMP] | confirmed the formation of dTMP only in the simultaneous presence of ThyX, NADPH, and CH2O | 
2 | C=O [formaldehyde] |  | ~20 mM

Source: PMC8316439, “An enzymatic activation of formaldehyde for nucleotide methylation” (Nature Communications, 2021)
